{
  "source": "patent EP0338042B1",
  "about": "“COMPOSITION AND METHOD FOR TREATING HEPATITIS VIRUS INFECTIONS USING 1-(2'-DEOXY-2'-FLUORO-BETA-D-ARABINOFURANOSYL)-5-ETHYLURACIL” (priority 1987, dated 1989)",
  "key": {"HSV-1(F)": {"test_system": "HSV-1(F)", "details": "plaque reduction in Vero cells, cited from earlier work"}, "L-1210": {"test_system": "L-1210", "assay": "Incorporation of 2-14C-labeled nucleoside into DNA of cells", "assay_type": "cell-based, rodent", "details": "FEAU also not detectable at 100 μM", "description": "There was no detectable incorporation of FEAU radioactivity into the DNA of either L-1210 or Vero cell lines, but substantial amounts of FMAU radioactivity were incorporated into the DNA of both cell lines. When HSV-1 infected Vero cells were exposed to ¹⁴C-labeled FEAU and FMAU, both nucleosides incorporated into the DNA of these virus-infected cells."}, "[1]": {"test_system": "simian varicella virus (SVV)", "assay": "Simian varicella virus infection in the African green monkey", "details": "for VIREMIA - MEAN PFU ON DAYS P.I. 3: IV twice daily for ten days from 48 hours after inoculation; for VIREMIA - MEAN PFU ON DAYS P.I. 5 / VIREMIA - MEAN PFU ON DAYS P.I. 7 / VIREMIA - MEAN PFU ON DAYS P.I. 9 / VIREMIA - MEAN PFU ON DAYS P.I. 11: IV twice daily for ten days"}, "HSV-2 (STRAIN G)": {"test_system": "HSV-2 (STRAIN G)", "details": "cited from earlier work; for MDD: calculated on day 21; for %WT GAIN ON DAY 7 / %WT GAIN ON DAY 14 / %WT GAIN ON DAY 21 / %WT GAIN ON DAY 30: compared to day 1"}, "[2]": {"details": "FEAU 3 MG/KG/DAY, one line per monkey"}, "[3]": {"details": "FEAU 10 MG/KG/DAY, one line per monkey"}, "[4]": {"details": "FEAU 30 MG/KG/DAY, one line per monkey"}, "[5]": {"details": "FEAU 10 MG/KG/DAY, single surviving animal only"}},
  "note": "“And” between values parts separate entries of the source, which are not always exact repeats. Equal values may be shown once. Read-outs that look alike come from different tables or passages of the source. Marks after values point to notes of the source that are not given here.",
  "data": [
    {"molecule": "CCc1cn([C@@H]2O[C@H](CO)[C@@H](O)[C@@H]2F)c(=O)[nH]c1=O", "note": "[FEAU, 1-(2'-deoxy-2'-fluoro-beta-D-arabino-furanosyl)-5-ethyl-uracil]", "values": [
      {"measurement": "EC50", "setting": "HSV-1(F); read-out: HSV-1(F) ED₅₀", "result": 24, "unit": "nM"},
      {"measurement": "EC90", "setting": "HSV-1(F); read-out: HSV-1(F) ED₉₀", "result": 260, "unit": "nM"},
      {"measurement": "INCORPORATION INTO DNA AT 10μM, L-1210", "setting": "L-1210", "result": "NOT DETECTABLE*"},
      {"measurement": "minimal effective dose", "setting": "[1]; Cercopithecine alphaherpesvirus 9, in Primates", "result": "~1", "unit": "mg/kg/day"},
      {"measurement": "RASH -SEVERITY ON DAYS P.I. 9", "setting": "[1]; FEAU 1 MG/KG/DAY by stomach tube twice daily for ten days, one line per monkey", "result": "±"},
      {"measurement": "VIREMIA - MEAN PFU ON DAYS P.I. 3", "setting": "[1]; [2]", "result": "1 PFU and 0 PFU"},
      {"measurement": "VIREMIA - MEAN PFU ON DAYS P.I. 5", "setting": "[1]; [2]", "result": "8 PFU and 1 PFU"},
      {"measurement": "VIREMIA - MEAN PFU ON DAYS P.I. 7", "setting": "[1]; [2]", "result": "0 PFU and 1 PFU"},
      {"measurement": "VIREMIA - MEAN PFU ON DAYS P.I. 9", "setting": "[1]; [2]", "result": 0, "unit": "PFU"},
      {"measurement": "VIREMIA - MEAN PFU ON DAYS P.I. 11", "setting": "[1]; [2]", "result": 0, "unit": "PFU"},
      {"measurement": "VIREMIA - MEAN PFU ON DAYS P.I. 3", "setting": "[1]; [3]", "result": "1 PFU and 0 PFU"},
      {"measurement": "VIREMIA - MEAN PFU ON DAYS P.I. 5", "setting": "[1]; [3]", "result": "14 PFU and 1 PFU"},
      {"measurement": "VIREMIA - MEAN PFU ON DAYS P.I. 7", "setting": "[1]; [3]", "result": "5 PFU and 1 PFU"},
      {"measurement": "VIREMIA - MEAN PFU ON DAYS P.I. 9", "setting": "[1]; [3]", "result": 0, "unit": "PFU"},
      {"measurement": "VIREMIA - MEAN PFU ON DAYS P.I. 11", "setting": "[1]; [3]", "result": 0, "unit": "PFU"},
      {"measurement": "VIREMIA - MEAN PFU ON DAYS P.I. 3", "setting": "[1]; [4]", "result": "1 PFU and 2 PFU"},
      {"measurement": "VIREMIA - MEAN PFU ON DAYS P.I. 5", "setting": "[1]; [4]", "result": 0, "unit": "PFU"},
      {"measurement": "VIREMIA - MEAN PFU ON DAYS P.I. 7", "setting": "[1]; [4]", "result": 0, "unit": "PFU"},
      {"measurement": "VIREMIA - MEAN PFU ON DAYS P.I. 9", "setting": "[1]; [4]", "result": 0, "unit": "PFU"},
      {"measurement": "VIREMIA - MEAN PFU ON DAYS P.I. 11", "setting": "[1]; [4]", "result": 0, "unit": "PFU"},
      {"measurement": "rash", "setting": "[1]; intravenous route, 30, 10 and 3 mg/kg/day x 10", "result": "none of the FEAU-treated monkeys developed rash"},
      {"measurement": "hematology tests and serum chemistries", "setting": "[1]; intravenous route, 30, 10 and 3 mg/kg/day x 10, all treated monkeys", "result": "normal"},
      {"measurement": "toxicity", "setting": "[1]; intravenous route, three dose levels up to 30 mg/kg/day x 10", "result": "no apparent toxicity"},
      {"measurement": "rash", "setting": "[1]; lower dose of 1 mg/kg/day", "result": "prevented development of rash"},
      {"measurement": "viremia", "setting": "[1]; lower dose of 1 mg/kg/day", "result": "did not reduce viremia in two of three monkeys"},
      {"measurement": "viremia", "setting": "[1]; oral administration, 10, 3 or 1 mg/kg/day x 10", "result": "reduced viremia significantly"},
      {"measurement": "toxicity", "setting": "[1]; oral route, 10 mg/kg/day x 10", "result": "without any observed toxicity"},
      {"measurement": "MDD", "setting": "HSV-2 (STRAIN G); FEAU 10 MG/KG/DAY, twice a day for 4 days from 5 hr after inoculation", "result": 9.4},
      {"measurement": "% SURVIVORS", "setting": "HSV-2 (STRAIN G); FEAU 10 MG/KG/DAY, twice a day for 4 days", "result": 8, "unit": "%"},
      {"measurement": "%WT GAIN ON DAY 7", "setting": "HSV-2 (STRAIN G); FEAU 10 MG/KG/DAY", "result": -7, "unit": "%"},
      {"measurement": "%WT GAIN ON DAY 14", "setting": "HSV-2 (STRAIN G); [5]", "result": "-13^+ %"},
      {"measurement": "%WT GAIN ON DAY 21", "setting": "HSV-2 (STRAIN G); [5]", "result": "31^+ %"},
      {"measurement": "%WT GAIN ON DAY 30", "setting": "HSV-2 (STRAIN G); [5]", "result": "36^+ %"},
      {"measurement": "MDD", "setting": "HSV-2 (STRAIN G); FEAU 50 MG/KG/DAY, twice a day for 4 days from 5 hr after inoculation", "result": 11.8},
      {"measurement": "% SURVIVORS", "setting": "HSV-2 (STRAIN G); FEAU 50 MG/KG/DAY, twice a day for 4 days", "result": 25, "unit": "%"},
      {"measurement": "%WT GAIN ON DAY 7", "setting": "HSV-2 (STRAIN G); FEAU 50 MG/KG/DAY", "result": 3, "unit": "%"},
      {"measurement": "%WT GAIN ON DAY 14", "setting": "HSV-2 (STRAIN G); FEAU 50 MG/KG/DAY", "result": -10, "unit": "%"},
      {"measurement": "%WT GAIN ON DAY 21", "setting": "HSV-2 (STRAIN G); FEAU 50 MG/KG/DAY", "result": 16, "unit": "%"},
      {"measurement": "%WT GAIN ON DAY 30", "setting": "HSV-2 (STRAIN G); FEAU 50 MG/KG/DAY", "result": 25, "unit": "%"},
      {"measurement": "MDD", "setting": "HSV-2 (STRAIN G); FEAU 100 MG/KG/DAY, twice a day for 4 days from 5 hr after inoculation", "result": 11.0},
      {"measurement": "% SURVIVORS", "setting": "HSV-2 (STRAIN G); FEAU 100 MG/KG/DAY, twice a day for 4 days", "result": 72, "unit": "%"},
      {"measurement": "%WT GAIN ON DAY 7", "setting": "HSV-2 (STRAIN G); FEAU 100 MG/KG/DAY", "result": 2, "unit": "%"},
      {"measurement": "%WT GAIN ON DAY 14", "setting": "HSV-2 (STRAIN G); FEAU 100 MG/KG/DAY", "result": 7, "unit": "%"},
      {"measurement": "%WT GAIN ON DAY 21", "setting": "HSV-2 (STRAIN G); FEAU 100 MG/KG/DAY", "result": 13, "unit": "%"},
      {"measurement": "%WT GAIN ON DAY 30", "setting": "HSV-2 (STRAIN G); FEAU 100 MG/KG/DAY", "result": 13, "unit": "%"},
      {"measurement": "MDD", "setting": "HSV-2 (STRAIN G); FEAU 200 MG/KG/DAY, twice a day for 4 days, parentheses: death of a single animal", "result": "(14)^#"},
      {"measurement": "% SURVIVORS", "setting": "HSV-2 (STRAIN G); FEAU 200 MG/KG/DAY, twice a day for 4 days", "result": 93, "unit": "%"},
      {"measurement": "%WT GAIN ON DAY 7", "setting": "HSV-2 (STRAIN G); FEAU 200 MG/KG/DAY", "result": 0, "unit": "%"},
      {"measurement": "%WT GAIN ON DAY 14", "setting": "HSV-2 (STRAIN G); FEAU 200 MG/KG/DAY", "result": 1, "unit": "%"},
      {"measurement": "%WT GAIN ON DAY 21", "setting": "HSV-2 (STRAIN G); FEAU 200 MG/KG/DAY", "result": 9, "unit": "%"},
      {"measurement": "%WT GAIN ON DAY 30", "setting": "HSV-2 (STRAIN G); FEAU 200 MG/KG/DAY", "result": 13, "unit": "%"},
      {"measurement": "toxicity", "setting": "HSV-2 (STRAIN G); HSV-2 infected mice, doses of 100-200 mg/kg/day", "result": "no toxicity was observed"}
    ]}
  ]
}
